The record followed here is patent publication US4892885A, “Esters of (triarylphosphoranylidene)carbamic acid for effecting diuresis” (American Cyanamid Company, priority 1988, dated 1990).

The test system of assay [1] is Spontaneously Hypertensive Rats. As to the kind of experiment: Diuretic activity in spontaneously hypertensive rats (0-5 hour urine). It is filed as in vivo, Male spontaneously hypertensive rats (SHR) of Okamoto strain. The settings on record: 100 mg/kg by gavage, sodium chloride loading, SHR. The procedure: The diuretic activity of the compounds of this invention was also determined according to the method of Chan, P. S. and Poorvin, D., "Sequential method for combined screening antihypertensive and diuretic agents in the same spontaneously hypertensive rat." Clinical and Experimental Hypertension, 1(6), 817-830 (1979). Male spontaneously hypertensive rats (SHR) of Okamoto strain, 16 weeks old, Taconic Farms Inc. were used in the test. These rats were kept on Purina laboratory chow and tap water ad libitum for 8 weeks before use. One male adult rat (about 300 g) was dosed by gavage with a test compound at 100 mg/kg together with 0.9 sodium chloride loading at […] at zero hour. The tese compound was suspended in 3% preboiled starch at 50 mg/ml. The rat was put in a metabolism cage. The 0-5 hour urine was collected and urinary sodium and potassium were determined using a Beckman Astra 4.

The next assay relates to plasma renin activity. As to the kind of experiment: Inhibition of evoked (drug-induced) increase of plasma renin activity (PRA) in conscious rats. It is filed as in vivo. The settings on record: 25 mg/kg oral, 30 minutes prior to hydrochlorothiazide (10 mg/kg) + ACE inhibitor (1 mg/kg) provocative treatment; male Wistar rats; number of rats in parentheses. As for the experimental part: Inhibition of evoked increase of plasma renin activity was determined by the following test.
Compounds were tested for their ability to prevent drug-induced elevation of plasma renin activity (PRA) in conscious, male Wistar rats (180-200 g, Charles River Lab.). PRA elevation was induced by a combined oral provocative treatment (C) of hydrochlorothiazide (10 mg/kg) and 1-(3-benzoyl-3-mercapto-2-methylpropionyl)-L-proline, acetate (U.S. Pat. No. 4,226,775) (one mg/kg), prepared by compounding in a mortar and pestle with preboiled 3% starch suspension. This treatment provided the daily maximum PRA. The daily minimum PRA was obtained from rats given oral starch suspension (S) alone. The magnitude of drug effect on PRA elevation was ascertained from rats pretreated orally with test agent (D), at the indicated doeses, 30 minutes prior to administration of provocative treatment (C). The test agent was also compounded in preboiled 3% starch suspension. The dose volumes for both pretreatment and provocative treatment were 2 ml/kg. One hour after provocative treatment the rats were sacrificed by decapitation and the first 3 seconds of blood collected in two chilled vacutainer tubes containing […] of 150 mg/ml tripotassium EDTA. […]
PRA is calculated as follows: PRA ([…])=PRA 37° C.-PRA 4° C.
Percent inhibition of PRA elevation is calculated as follows: [formula]

Consider `CCOC(=O)N=P(c1ccccc1)(c1ccccc1)c1ccccc1CN1CCCCC1` [[Diphenyl[2-(1-piperidinylmethyl)phenyl]phosphoranylidene]carbamic acid, ethyl ester], for which, in assay [1], the “Potassium (urinary)” value is listed as 0.37 MEQ/5 Hours, the “Sodium (urinary)” value was 1.92 MEQ/5 Hours and the “Volume (urine)” value worked out at 18.8 mL.

Take `CCOC(=O)N=P(c1ccccc1)(c1ccccc1)c1ccccc1CN1CCCC1` [[Diphenyl[2-(1-pyrrolidinylmethyl)phenyl]phosphoranylidene]carbamic acid, ethyl ester]: in assay [1], the “Potassium (urinary)” value was 0.56 MEQ/5 Hours, the “Sodium (urinary)” value turned out to be 1.36 MEQ/5 Hours and the “Volume (urine)” value amounted to 12.0 mL.

With `CCOC(=O)N=P(c1ccccc1)(c1ccccc1)c1ccccc1CN(C)C` [[[2-[(Dimethylamino)methyl]phenyl]diphenylphosphoranylidene]carbamic acid, ethyl ester], the “Percent Inhibition of Plasma Renin Elevation, Average % Inhibition (No. of rats)” value with plasma renin activity amounted to 16%. In addition, in assay [1], the “Potassium (urinary)” value came to 0.67 MEQ/5 Hours, the “Sodium (urinary)” value came to 1.47 MEQ/5 Hours and the “Volume (urine)” value stood at 15.5 mL.

For `COC(=O)N=P(c1ccccc1)(c1ccccc1)c1ccccc1CN(C)C` [[[2-[(Dimethylamino)methyl]phenyl]diphenylphosphoranylidene]carbamic acid, methyl ester], the “Percent Inhibition of Plasma Renin Elevation, Average % Inhibition (No. of rats)” value in the assay on plasma renin activity is reported as 77%. For the same compound, in assay [1], the “Potassium (urinary)” value was 0.83 MEQ/5 Hours, the “Sodium (urinary)” value was 1.62 MEQ/5 Hours and the “Volume (urine)” value amounted to 19.5 mL.

As for `CCCN(CCC)Cc1ccccc1P(=NC(=O)OCC)(c1ccccc1)c1ccccc1` [[[2-[(Dipropylamino)methyl]phenyl]diphenylphosphoranylidene]carbamic acid, ethyl ester], in assay [1], the “Potassium (urinary)” value was 0.40 MEQ/5 Hours, the “Sodium (urinary)” value worked out at 1.41 MEQ/5 Hours and the “Volume (urine)” value came to 22.0 mL.

Take `CCOC(=O)N=P(c1ccccc1)(c1ccccc1)c1ccccc1CNC.Cl` [[[2-[(Methylamino)methyl]phenyl]diphenylphosphoranylidene]carbamic acid, ethyl ester, monohydrochloride]: in assay [1], the “Potassium (urinary)” value was found to be 0.51 MEQ/5 Hours, the “Sodium (urinary)” value is reported as 1.66 MEQ/5 Hours and the “Volume (urine)” value was found to be 17.5 mL.

Take `CCOC(=O)N=P(c1ccccc1)(c1ccccc1)c1ccccc1CN(CC)CC` [[[[2-(Diethylamino)methyl]phenyl]diphenylphosphoranylidene]carbamic acid, ethyl ester]: in assay [1], the “Potassium (urinary)” value was found to be 0.48 MEQ/5 Hours, the “Sodium (urinary)” value is 2.46 MEQ/5 Hours and the “Volume (urine)” value turned out to be 23.3 mL.
